Target: CBP (Homo sapiens (Human), UniProt Q92793)
Test: In vitro CBP inhibition (AlphaScreen, biotinylated H4-tetraacetyl peptide)
Format: binding
Conditions: AlphaScreen, Table 29; read-out: CBP IC50
Procedure, shortened: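 His-tagged CBP expressed in E. coli (50 nM final) incubated with biotinylated H4K5/8/12/16(Ac) peptide (20 nM final) in 50 mM HEPES pH 7.3, 10 mM NaCl, 0.25 mM TCEP, 0.1% BSA, 0.005% Brij-35, 0.4% DMSO, 20 min at room temp.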

CBP, sequence (Q92793 1081-1197): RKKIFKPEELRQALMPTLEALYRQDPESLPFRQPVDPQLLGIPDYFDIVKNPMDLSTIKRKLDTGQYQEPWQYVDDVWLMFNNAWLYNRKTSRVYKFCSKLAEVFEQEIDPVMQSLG

Row | Compound | IC50 [µM]
1 | Cn1cc(-c2cnn(-c3cccc(Cl)c3C#N)c2)c(-c2cnc(NC3CCCC3)nc2)cc1=O [Example 329, 2-chloro-6-(4-(4-(2-(cyclopentylamino)pyrimidin-5-yl)-1-methyl-6-oxo-1,6-dihydropyridin-3-yl)-1H-pyrazol-1-yl)benzonitrile] | < 0.5
2 | CC(C)Nc1ncc(-c2cc(=O)n(C)cc2-c2cnn(-c3cccc(Cl)c3C#N)c2)cn1 [Example 331, 2-chloro-6-(4-(4-(2-(isopropylamino)pyrimidin-5-yl)-1-methyl-6-oxo-1,6-dihydropyridin-3-yl)-1H-pyrazol-1-yl)benzonitrile] | < 0.5
3 | CNc1ncc(-c2cc(=O)n(C)cc2-c2cnn(-c3cccc(Cl)c3C#N)c2)cn1 [Example 332, 2-chloro-6-(4-(1-methyl-4-(2-(methylamino)pyrimidin-5-yl)-6-oxo-1,6-dihydropyridin-3-yl)-1H-pyrazol-1-yl)benzonitrile] | < 0.5
4 | CN(C)c1ncc(-c2cc(=O)n(C)cc2-c2cnn(-c3cccc(F)c3C#N)c2)cn1 [Example 334, 2-[4-[4-[2-(dimethylamino)pyrimidin-5-yl]-1-methyl-6-oxo-3-pyridyl]pyrazol-1-yl]-6-fluoro-benzonitrile] | < 0.5
5 | CN1CCN(c2ncc(-c3cc(=O)n(C)cc3-c3cnn(-c4cccc(Cl)c4C#N)c3)cn2)CC1 [Example 337, 2-chloro-6-(4-(1-methyl-4-(2-(4-methylpiperazin-1-yl)pyrimidin-5-yl)-6-oxo-1,6-dihydropyridin-3-yl)-1H-pyrazol-1-yl)benzonitrile] | < 0.5
6 | Cn1cc(-c2cnn(-c3cccc(Cl)c3C#N)c2)c(-c2cnc(N3CCCCC3)nc2)cc1=O [Example 338, 2-chloro-6-(4-(1-methyl-6-oxo-4-(2-(piperidin-1-yl)pyrimidin-5-yl)-1,6-dihydropyridin-3-yl)-1H-pyrazol-1-yl)benzonitrile] | < 0.5
7 | CC(C)Nc1ccc(-c2cc(=O)n(C)cc2-c2cnn(-c3cccc(Cl)c3C#N)c2)cn1 [Example 339, 2-chloro-6-[4-[4-[6-(isopropylamino)-3-pyridyl]-1-methyl-6-oxo-3-pyridyl]-pyrazol-1-yl]benzonitrile] | < 0.5
8 | Cn1cc(-c2cnn(-c3cccc(Cl)c3C#N)c2)c(-c2ccc(NC3CCCC3)nc2)cc1=O [Example 340, 2-chloro-6-(4-(6-(cyclopentylamino)-1′-methyl-6′-oxo-1′,6′-dihydro-[3,4′-bipyridin]-3′-yl)-1H-pyrazol-1-yl)benzonitrile] | < 0.5
9 | CNc1ccc(-c2cc(=O)n(C)cc2-c2cnn(-c3cccc(Cl)c3C#N)c2)cn1 [Example 341, 2-chloro-6-(4-(1′-methyl-6-(methylamino)-6′-oxo-1′,6′-dihydro-[3,4′-bipyridin]-3′-yl)-1H-pyrazol-1-yl)benzonitrile] | < 0.5
10 | CCNc1ccc(-c2cc(=O)n(C)cc2-c2cnn(-c3cccc(Cl)c3C#N)c2)cn1 [Example 342, 2-chloro-6-(4-(6-(ethylamino)-1′-methyl-6′-oxo-1′,6′-dihydro-[3,4′-bipyridin]-3′-yl)-1H-pyrazol-1-yl)benzonitrile] | < 0.5
11 | CCNc1ccc(-c2cc(=O)n(C)cc2-c2cnn(-c3cccc(F)c3C#N)c2)cn1 [Example 344, 2-(4-(6-(ethylamino)-1′-methyl-6′-oxo-1′,6′-dihydro-[3,4′-bipyridin]-3′-yl)-1H-pyrazol-1-yl)-6-fluorobenzonitrile] | < 0.5
12 | CN(C)c1ccc(-c2cc(=O)n(C)cc2-c2cnn(-c3cccc(Cl)c3C#N)c2)cn1 [Example 345, 2-chloro-6-{4-[6-(dimethylamino)-1′-methyl-6′-oxo-1′,6′-dihydro-[3,4′-bipyridine]-3′-yl]-1H-pyrazol-1-yl}benzonitrile] | < 0.5
13 | Cn1cc(-c2cnn(-c3cccc(F)c3C#N)c2)c(-c2ccc(NCC3CC3)nc2)cc1=O [Example 346, 2-(4-{6-[(cyclopropylmethyl)amino]-1′-methyl-6′-oxo-1′,6′-dihydro-[3,4′-bipyridine]-3′-yl}-1H-pyrazol-1-yl)-6-fluorobenzonitrile] | < 0.5
14 | CN(C)c1ccc(-c2cc(=O)n(C)cc2-c2cnn(-c3cccc(F)c3C#N)c2)cn1 [Example 347, 2-{4-[6-(dimethylamino)-1′-methyl-6′-oxo-1′,6′-dihydro-[3,4′-bipyridine]-3′-yl]-1H-pyrazol-1-yl}-6-fluorobenzonitrile] | < 0.5
15 | Cn1cc(-c2cnn(-c3cccc(F)c3C#N)c2)c(-c2ccc(N3CCCC3)nc2)cc1=O [Example 350, 2-fluoro-6-[4-[1-methyl-6-oxo-4-(6-pyrrolidin-1-yl-3-pyridyl)-3-pyridyl]pyrazol-1-yl]benzonitrile] | < 0.5
16 | Cn1cc(-c2cnn(-c3cccc(Cl)c3C#N)c2)c(-c2ccc(OC3CCCC3)nc2)cc1=O [Example 352, 2-chloro-6-[4-[4-[6-(cyclopentoxy)-3-pyridyl]-1-methyl-6-oxo-3-pyridyl]pyrazol-1-yl]benzonitrile] | < 0.5
17 | Cn1cc(-c2cnn(-c3cccc(Cl)c3C#N)c2)c(-c2ccc(OC(F)F)nc2)cc1=O [Example 354, 2-chloro-6-(4-(6-(difluoromethoxy)-1′-methyl-6′-oxo-1′,6′-dihydro-[3,4′-bipyridin]-3′-yl)-1H-pyrazol-1-yl)benzonitrile] | < 0.5
18 | CC(C)Oc1ccc(-c2cc(=O)n(C)cc2-c2cnn(-c3cccc(F)c3C#N)c2)cn1 [Example 358, 2-fluoro-6-[4-[4-(6-isopropoxy-3-pyridyl)-1-methyl-6-oxo-3-pyridyl]pyrazol-1-yl]benzonitrile] | < 0.5
19 | CCOc1ccc(-c2cc(=O)n(C)cc2-c2cnn(-c3cccc(F)c3C#N)c2)cn1 [Example 359, 2-(4-(6-ethoxy-1′-methyl-6′-oxo-1′,6′-dihydro-[3,4′-bipyridin]-3′-yl)-1H-pyrazol-1-yl)-6-fluorobenzonitrile] | < 0.5

Continued, values first:

Row | IC50 [µM] | Compound
20 | < 0.5 | CN(C)c1ncc(-c2cc(=O)n(C)cc2-c2cnn(-c3cccc(Cl)c3C#N)c2)cn1 [Example 328, 2-chloro-6-(4-(4-(2-(dimethylamino)pyrimidin-5-yl)-1-methyl-6-oxo-1,6-dihydropyridin-3-yl)-1H-pyrazol-1-yl)benzonitrile]
21 | < 0.5 | Cn1cc(-c2cnn(-c3cccc(Cl)c3C#N)c2)c(-c2cnc(N3CCCC3)nc2)cc1=O [Example 330, 2-chloro-6-(4-(1-methyl-6-oxo-4-(2-(pyrrolidin-1-yl)pyrimidin-5-yl)-1,6-dihydropyridin-3-yl)-1H-pyrazol-1-yl)benzonitrile]
22 | < 0.5 | CCNc1ncc(-c2cc(=O)n(C)cc2-c2cnn(-c3cccc(F)c3C#N)c2)cn1 [Example 333, 2-[4-[4-[2-(ethylamino)pyrimidin-5-yl]-1-methyl-6-oxo-3-pyridyl]pyrazol-1-yl]-6-fluoro-benzonitrile]
23 | < 0.5 | Cn1cc(-c2cnn(-c3cccc(Cl)c3C#N)c2)c(-c2cnc(N3CCOCC3)nc2)cc1=O [Example 335, 2-chloro-6-(4-(1-methyl-4-(2-morpholinopyrimidin-5-yl)-6-oxo-1,6-dihydropyridin-3-yl)-1H-pyrazol-1-yl)benzonitrile]
24 | < 0.5 | Cn1cc(-c2cnn(-c3cccc(F)c3C#N)c2)c(-c2cnc(N3CCCC3)nc2)cc1=O [Example 336, 2-fluoro-6-[4-[1-methyl-6-oxo-4-(2-pyrrolidin-1-ylpyrimidin-5-yl)-3-pyridyl]pyrazol-1-yl]benzonitrile]
25 | < 0.5 | Cn1cc(-c2cnn(-c3cccc(F)c3C#N)c2)c(-c2ccc(NC3CCCC3)nc2)cc1=O [Example 343, 2-(4-(6-(cyclopentylamino)-1′-methyl-6′-oxo-1′,6′-dihydro-[3,4′-bipyridin]-3′-yl)-1H-pyrazol-1-yl)-6-fluorobenzonitrile]
26 | < 0.5 | Cn1cc(-c2cnn(-c3cccc(Cl)c3C#N)c2)c(-c2ccc(NCC3CC3)nc2)cc1=O [Example 348, 2-chloro-6-(4-{6-[(cyclopropylmethyl)amino]-1′-methyl-6′-oxo-1′,6′-dihydro-[3,4′-bipyridine]-3′-yl}-1H-pyrazol-1-yl)benzonitrile]
27 | < 0.5 | Cn1cc(-c2cnn(-c3cccc(Cl)c3C#N)c2)c(-c2ccc(N3CCCC3)nc2)cc1=O [Example 349, 2-chloro-6-[4-[1-methyl-6-oxo-4-(6-pyrrolidin-1-yl-3-pyridyl)-3-pyridyl]pyrazol-1-yl]benzonitrile]
28 | < 0.5 | CC(C)Nc1ccc(-c2cc(=O)n(C)cc2-c2cnn(-c3cccc(F)c3C#N)c2)cn1 [Example 351, 2-fluoro-6-(4-(6-(isopropylamino)-1′-methyl-6′-oxo-1′,6′-dihydro-[3,4′-bipyridin]-3′-yl)-1H-pyrazol-1-yl)benzonitrile]
29 | < 0.5 | Cn1cc(-c2cnn(-c3cccc(F)c3C#N)c2)c(-c2ccc(OC(F)F)nc2)cc1=O [Example 353, 2-(4-(6-(difluoromethoxy)-1′-methyl-6′-oxo-1′,6′-dihydro-[3,4′-bipyridin]-3′-yl)-1H-pyrazol-1-yl)-6-fluorobenzonitrile]
30 | < 0.5 | CN(C)CCCOc1ccc(-c2cc(=O)n(C)cc2-c2cnn(-c3ccccc3C#N)c2)cn1 [Example 355, 2-(4-(6-(3-(dimethylamino)propoxy)-1′-methyl-6′-oxo-1′,6′-dihydro-[3,4′-bipyridin]-3′-yl)-1H-pyrazol-1-yl)benzonitrile]
31 | < 0.5 | Cn1cc(-c2cnn(-c3cccc(Cl)c3C#N)c2)c(-c2ccc(OCC3CC3)nc2)cc1=O [Example 357, 2-chloro-6-[4-[4-[6-(cyclopropylmethoxy)-3-pyridyl]-1-methyl-6-oxo-3-pyridyl]pyrazol-1-yl]benzonitrile]
32 | < 0.5 | Cn1cc(-c2cnn(-c3cccc(F)c3C#N)c2)c(-c2ccc(OCC3CC3)nc2)cc1=O [Example 360, 2-[4-[4-[6-(cyclopropylmethoxy)-3-pyridyl]-1-methyl-6-oxo-3-pyridyl]pyrazol-1-yl]-6-fluoro-benzonitrile]
33 | < 0.5 | Cn1cc(-c2cnn(-c3cccc(F)c3C#N)c2)c(-c2ccc(OC3CCCC3)nc2)cc1=O [Example 361]
